In patent US20190029951A1, “EXTENDED RELEASE FORMULATIONS OF VELIPARIB FOR THE TREATMENT OF CANCER” (AbbVie Inc., priority 2016, published 2019):

What was measured:
Type in all cases: in vivo, human
[1] = system: tumor growth (sum of the longest diameter for all target lesions); test: Exposure-response tumor growth inhibition model (NONMEM nonlinear mixed-effects); conditions: final tumor growth inhibition model
Description: Fifty-four subjects (39 with ovarian, fallopian tube, or peritoneal cancers, 14 with breast cancer, and 1 with prostate cancer) were included in an exposure-response analysis using nonlinear mixed-effects modeling approach with NONMEM software (version 7.3.0) (Table 6).
Veliparib pharmacokinetics (PK) was described with a one-compartment model with first-order elimination process (kel) (FIG. 4). For the IR formulation, absorption was modeled as a first-order process (ka) (Equations 1a and 1b). For the ER formulation, the absorption was modeled as a zero-order process (Dose/Duration) (Equations 2a and 2b).
Subsequently, the relationship between veliparib PK exposure and longitudinal tumor growth inhibition was analyzed. The time course of tumor growth inhibition was modeled using an exponential tumor growth model represented by a single tumor compartment linked to veliparib central compartment with linear inhibitory effect of veliparib on tumor growth (see FIG. 4 and Equation 3). The possible measurement error at the baseline was accounted for by allowing individual deviations from the observed baseline as between-subject variability. Inter-individual variability was incorporated on the slope and estimated baseline using exponential function and the residual variability was characterized using additive error. […]

breast cancer = test: Best tumor response in patients with breast cancer; conditions: patients with BC, 6/16
Description: (§1) The term “efficacy” as used herein refers to an inhibitory effect on tumor growth, which can be manifested as slowing, retarding, arresting or even reversing (i.e., shrinking) growth of the tumor. In some embodiments, the effect on tumor growth is associated with suppression by a PARP inhibitory compound, for example Veliparib. In clinical sittings, efficacy can be measured by one skilled in the art and by a number of efficacy endpoints, for example, overall survival (OS), progression free survival (PPS), time to progression (TTP), time to treatment failure (TTF), event-free survival (EFS), time to next treatment (TINT), objective response rate (ORR), duration of response (DoR), and/or response rate, for example, partial response (PR) or complete response (CR). The term “partial response” or “PR” as used herein, means a partial response of the target lesion, indicated by at least a 30% decrease in the sum of diameters of target lesions, taking as reference the baseline sum diameters.
(§2) Eligible patients had metastatic BRCA+ cancer, BRCA± high-grade serious ovarian/primary peritoneal/fallopian tube cancer (OC), (part 1/2), or BRCA+ breast cancer (BC), or OC (part 3).
(§3) Best tumor responses were compared between patients from Part 1 who received IR-v as the primary treatment and patients in Part 2 and Part 3 of the study who received ER-v formulation C. […]

ovarian cancer = test: Best tumor response in patients with ovarian cancer; conditions: patients with OC, 8/44
Description: as §1, §2, §3

C[C@]1(c2nc3c(C(N)=O)cccc3[nH]2)CCCN1 [veliparib, 2-[(2R)-2-methylpyrrolidin-2-yl]-1H-benzimidazole-4-carboxamide]
BRCA effect on Slope (i.e., ratio of Slope for BRCA-mut to Slope for BRCA-wt), Population Estimate [1]: 1.72 | Confirmed and unconfirmed responses (breast cancer): 38% | Confirmed and unconfirmed responses (ovarian cancer): 18%
